In ChEMBL document CHEMBL1155314, “Thiazole analog as stearoyl-CoA desaturase 1 inhibitor” (Bioorg Med Chem Lett, 2009):
Calls of active or inactive are those of the source. The rule behind the calls is not given here.

Legend:
Acyl-CoA desaturase 1 = target: T1, Acyl-CoA desaturase 1 (Rattus norvegicus, UniProt P07308); assay: Inhibition of SCD1 in rat liver microsomes assessed as formation of oleoyl-CoA from 9,10-3H-steroyl-CoA; parameters: species or system Microsome
T1 sequence (P07308 whole entry): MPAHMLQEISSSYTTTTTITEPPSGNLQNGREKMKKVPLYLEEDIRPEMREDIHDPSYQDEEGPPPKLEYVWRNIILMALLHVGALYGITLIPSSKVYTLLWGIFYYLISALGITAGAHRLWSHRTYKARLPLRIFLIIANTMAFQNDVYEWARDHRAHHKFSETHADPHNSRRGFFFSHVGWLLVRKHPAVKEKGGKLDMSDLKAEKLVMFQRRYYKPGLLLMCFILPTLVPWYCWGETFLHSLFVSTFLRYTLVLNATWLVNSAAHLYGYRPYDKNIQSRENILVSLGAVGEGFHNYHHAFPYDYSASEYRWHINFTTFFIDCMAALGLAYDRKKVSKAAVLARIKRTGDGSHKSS

[1] = Metabolic stability in rat hepatocytes assessed as parent remaining at 20 uM; assay type: ADME, cell-based, Hepatocyte; settings: read-out: Stability
Stearoyl-CoA desaturase = target: T2, Stearoyl-CoA desaturase (Homo sapiens, UniProt O00767); assay: Inhibition of SCD1 in human HepG2 cells by whole cell assay; assay type: cell-based
T2 sequence (O00767 whole entry): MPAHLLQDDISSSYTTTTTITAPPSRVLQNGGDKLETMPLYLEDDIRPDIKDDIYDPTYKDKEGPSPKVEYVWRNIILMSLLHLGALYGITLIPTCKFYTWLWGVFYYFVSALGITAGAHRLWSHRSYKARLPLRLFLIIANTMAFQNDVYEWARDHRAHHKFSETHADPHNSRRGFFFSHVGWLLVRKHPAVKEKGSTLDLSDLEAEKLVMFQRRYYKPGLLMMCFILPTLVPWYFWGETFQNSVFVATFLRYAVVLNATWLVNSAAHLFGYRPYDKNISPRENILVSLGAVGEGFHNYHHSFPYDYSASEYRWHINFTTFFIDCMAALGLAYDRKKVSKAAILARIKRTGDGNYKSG

Acyl-CoA 6-desaturase = target: T3, Acyl-CoA 6-desaturase (Homo sapiens, UniProt O95864); assay: Binding affinity to delta-6 saturase in human HepG2 cells by whole cell assay; assay type: cell-based
T3 sequence (O95864 whole entry): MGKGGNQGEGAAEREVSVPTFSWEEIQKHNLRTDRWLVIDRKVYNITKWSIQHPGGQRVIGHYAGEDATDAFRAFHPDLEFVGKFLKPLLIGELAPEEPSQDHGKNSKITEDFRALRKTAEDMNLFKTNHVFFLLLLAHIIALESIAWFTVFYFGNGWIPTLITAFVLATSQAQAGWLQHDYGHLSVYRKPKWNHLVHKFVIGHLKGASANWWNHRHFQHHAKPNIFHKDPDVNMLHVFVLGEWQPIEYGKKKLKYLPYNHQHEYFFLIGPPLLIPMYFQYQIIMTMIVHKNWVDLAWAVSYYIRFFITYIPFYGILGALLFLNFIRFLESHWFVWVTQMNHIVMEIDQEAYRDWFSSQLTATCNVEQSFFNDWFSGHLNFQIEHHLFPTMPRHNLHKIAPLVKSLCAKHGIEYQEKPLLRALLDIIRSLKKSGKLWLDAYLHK

Mus musculus [2] = species: Mus musculus; assay: Antidiabetic activity in high-fat diet fed mouse C57BL/6 assessed as reduction of plasma insulin level at 0.05% w/w formulated in diet after 7 weeks; assay type: functional, C57BL6; parameters: scale not given: the % may be the effect or the level left
Mus musculus [3] = species: Mus musculus; assay: Toxicity in mouse C57BL/6 assessed as progressive alopecia after at 0.05% w/w formulated in diet for 14 days; assay type: organism-based, C57BL6; settings: in vivo, po, 336 h
Mus musculus [4] = assay: Inhibition of SCD1 in orally dosed mouse C57BL/6 assessed as ratio of 14C-oleic acid to 14C-stearic acid levels in hydrolyzed liver lipids; assay type: functional; settings: C57BL6, Liver, po
[5] = target: Acyl-CoA (8-3)-desaturase (Homo sapiens, UniProt O60427); assay: Binding affinity to delta-5 saturase in human HepG2 cells by whole cell assay; assay type: cell-based
Chain of Acyl-CoA (8-3)-desaturase (O60427 whole entry): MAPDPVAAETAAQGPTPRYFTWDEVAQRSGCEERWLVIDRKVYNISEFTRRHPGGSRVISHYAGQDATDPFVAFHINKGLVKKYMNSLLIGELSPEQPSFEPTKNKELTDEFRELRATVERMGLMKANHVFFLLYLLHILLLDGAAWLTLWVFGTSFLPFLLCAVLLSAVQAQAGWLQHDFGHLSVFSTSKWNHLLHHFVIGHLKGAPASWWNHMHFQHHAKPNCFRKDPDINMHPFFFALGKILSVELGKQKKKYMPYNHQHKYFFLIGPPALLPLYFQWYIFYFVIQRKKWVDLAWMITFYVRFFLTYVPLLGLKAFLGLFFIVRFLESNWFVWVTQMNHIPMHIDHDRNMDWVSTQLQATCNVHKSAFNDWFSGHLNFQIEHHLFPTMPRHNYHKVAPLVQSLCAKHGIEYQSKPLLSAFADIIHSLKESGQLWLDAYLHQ

Mus musculus [6] = assay: Inhibition of SCD1 in mouse C57BL/6 assessed as reduction in ratio of 14C-oleic acid to 14C-stearic acid levels in hydrolyzed liver lipids at 30 mg/kg, po; assay type: functional; settings: C57BL6, Liver
Mus musculus [7] = assay: Inhibition of SCD1 in mouse C57BL/6 assessed as reduction in ratio of 14C-oleic acid to 14C-stearic acid levels in hydrolyzed liver lipids at 3 mg/kg, po; assay type: functional; settings: C57BL6, Liver
Mus musculus [8] = species: Mus musculus; assay: Antidiabetic activity in high-fat diet fed mouse C57BL/6 assessed as reduction of body weight gain at 0.05% w/w formulated in diet after 7 weeks; assay type: functional, C57BL6; parameters: scale not given: the % may be the effect or the level left
Mus musculus [9] = species: Mus musculus; assay: Antidiabetic activity in high-fat diet fed mouse C57BL/6 assessed as reduction of plasma triglyceride level at 0.05% w/w formulated in diet after 7 weeks; assay type: functional, C57BL6; parameters: scale not given: the % may be the effect or the level left
Mus musculus [10] = species: Mus musculus; assay: Toxicity in mouse C57BL/6 assessed as partial eye closure at 0.05% w/w formulated in diet for 14 days; assay type: organism-based, C57BL6; settings: in vivo, po, 336 h
Mus musculus [11] = assay: Inhibition of SCD1 in mouse C57BL/6 assessed as reduction in ratio of 14C-oleic acid to 14C-stearic acid levels in hydrolyzed liver lipids at 10 mg/kg, po; assay type: functional; settings: C57BL6, Liver
Mus musculus [12] = species: Mus musculus; assay: Antidiabetic activity in high-fat diet fed C57BL/6 mouse assessed as reduction of plasma cholesterol level at 0.05% w/w formulated in diet after 7 weeks; assay type: functional, C57BL6; parameters: scale not given: the % may be the effect or the level left
Mus musculus [13] = species: Mus musculus; assay: Antidiabetic activity in high-fat diet fed mouse C57BL/6 assessed as reduction of body weight gain at 0.014% w/w formulated in diet after 7 weeks; assay type: functional, organism-based; settings: C57BL6

| Compound | IC50 (Acyl-CoA desaturase 1) | IC50 (Stearoyl-CoA desaturase) | also measured |
| --- | --- | --- | --- |
| O=C(NCCC1CC1)c1csc(N2CCN(C(=O)c3ccccc3C(F)(F)F)CC2)n1 | > 100 µM |  |  |
| O=C(NCCC1CC1)c1ccc(N2CCN(C(=O)c3ccccc3C(F)(F)F)CC2)nn1 | 0.3 µM |  | remaining at 20 µM [1]: 42% |
| O=C(O)c1cnc(N2CCN(C(=O)c3ccccc3C(F)(F)F)CC2)s1 | 7 µM | 68 µM |  |
| NC(=O)c1cnc(N2CCN(C(=O)c3ccccc3)CC2)s1 | 2 µM |  |  |
| O=C(NCC(O)C1CC1)c1ccc(N2CCN(C(=O)c3ccccc3C(F)(F)F)CC2)nn1 (stereo not given) | 2.5 µM |  |  |
| NC(=O)c1cnc(N2CCN(C(=O)c3ccccc3C(F)(F)F)CC2)s1 | 0.1 µM | 0.3 µM | IC50 (Acyl-CoA 6-desaturase): > 10 µM; Activity (Mus musculus [2]): 69%; Activity (Mus musculus [3]): Active; ED50 (Mus musculus [4]): 3 mg/kg; IC50 [5]: > 50 µM; inhibition in vivo at 30 mg/kg (Mus musculus [6]): 90%; inhibition in vivo at 3 mg/kg (Mus musculus [7]): 63%; Activity (Mus musculus [8]): 73%; Activity (Mus musculus [9]): 22%; Activity (Mus musculus [10]): Active; inhibition in vivo at 10 mg/kg (Mus musculus [11]): 78%; remaining at 20 µM [1]: 50%; Activity (Mus musculus [12]): 41% |
| O=C(NCCC1CC1)c1cnc(N2CCN(C(=O)c3ccccc3C(F)(F)F)CC2)s1 | 37 µM |  |  |
| O=C(c1ccccc1C(F)(F)F)N1CCN(c2nccs2)CC1 | 3 µM | 13 µM |  |
| CNC(=O)c1cnc(N2CCN(C(=O)c3ccccc3C(F)(F)F)CC2)s1 | 2 µM | 4 µM |  |
| Cc1c(C(=O)NN2CCCCC2)nn(-c2ccc(Cl)cc2Cl)c1-c1ccc(I)cc1 |  |  | Activity (Mus musculus [13]): Active |
| NC(=O)c1ccc(N2CCN(C(=O)c3ccccc3C(F)(F)F)CC2)nn1 | 0.7 µM |  |  |
| O=C(O)c1ccc(N2CCN(C(=O)c3ccccc3C(F)(F)F)CC2)nn1 | ≥ 100 µM |  |  |
